The text below walks through data of patent US20150010644A1, “OXYGENATION OF THE MUCOSAL BARRIER BY ENTERAL ARTIFICIAL BLOOD TO PREVENT HYPOXIC BREAKDOWN OF THE MUCOSAL BARRIER” (THE REGENTS OF THE UNIVERSITY OF CALIFORNIA, priority 2011, published 2015).

In one experiment the test system is mucin13. Kind of experiment: Western blot for mucin13 of intestine homogenates, rat SAO model. Type of experiment: in vivo. The following applies: SAO 30 min, lumenal injection 30 min prior. Here is the method:
(§1) Male Wistar rats (250-300 g, Harlan Sprague Dawley Inc, Indianapolis, Ind.) were randomly assigned to each group (n=4 per group). Rats were kept on solid food restriction for 12 hours prior to surgery with water ad libitum. […] Sham groups were treated the same with the arteries separated but not ligated.
(§2) Perfluorocarbon groups: Perfluorodecalin (PFC) (Sigma-Aldrich, St Louis, Mo.) with oxygen, previously bubbled into the solution for 10 min, was injected into the lumen of the intestine 30 min prior SHAM or SAO surgery (SHAM+PFC+O2, SAO+PFC+O2). PFC without oxygen bubbled into the solution was injected 30 min prior SHAM or SAO surgery (SHAM+PFC, SAO+PFC).
(§3) ATP-MgCl2 groups: ATP-MgCl2 (Sigma-Aldrich), 25 mg/kg BW was injected in the lumen of the intestine 30 min prior to SHAM or SAO surgery (SHAM+ATP, SAO+ATP).
(§4) pH groups: Acidic saline (pH 5.5) injected in the lumen of the intestine 30 min prior SHAM surgery or HEPES buffer (20 mM) injected into the lumen of the intestine 30 min prior to SHAM or SAO surgery.
(§5) Free radicals groups: The hydroxyl radical scavenger, dimethylthiourea (DMTU, Sigma-Aldrich; 2.0 mg/g BW) was injected in the lumen of the intestine 30 min prior to SAO (SAO+DMTU).
(§6) Homogenates of intestine and lumenal contents: Jejunal segments were excised without removal of lumenal contents. For enzyme activity measurements, segments of intestine were homogenized with CelLytic™ (Sigma-Aldrich) without addition of protease inhibitors. For Western blot assays the intestine segments were homogenized as above in the presence of protease inhibitors (5 mM EDTA, 5 mM N-Ethylmaleimide, 25 mM iodoacetamide, 5 mM benzamidine, 300 mM acarbose, 5 mM 6-aminocaproic acid, 1 mM protease inhibitor cocktail, (Sigma-Aldrich). In separate experiments the small intestine of sham animals was excised, and the lumenal contents were flushed with 20 ml saline. Homogenates or lumenal contents were centrifuged (16,000 g for 15 min at 4° C.), the supernatant was collected and protein concentration was assessed with the bicinchoninic acid protein assay (Thermo Scientific).
(§7) Western blot: 20 μg of tissue homogenate were separated by SDS-PAGE. Membranes were incubated with primary antibodies as follows: mucin2, mucin13 and trypsin 1:1000 (Santa Cruz Biotechnology), pancreatic amylase 1:1000 (GeneTex, San Antonio, Tex.), intra- and extra-cellular domains of E-cadherin and TLR4 1:1000 (Abcam), intracellular domain of TLR4 1:1000 (Invitrogen). Secondary antibodies were diluted 1:20000 (Santa Cruz Biotechnology) and detected with Super Signal West Pico (Thermo Scientific). The exposed x-ray films were scanned and label intensity was measured using digital gel analysis (NIH ImageJ software).
(A western blot detects proteins with antibodies after separation by electrophoresis.)

The next experiment relates to intestinal villi hypoxia. Briefly: Hypoxia staining (pimonidazole, Hypoxyprobe-1) of intestinal villi, rat SAO model. In kind it is in vivo. The following applies: SAO 30 min; lumenal injection 30 min prior. Here is the method: as §1, §2, §3, §4, §5
Hypoxia staining: In separate experiments tissue hypoxia was detected with Hypoxyprobe™-1 Kit (Natural Pharmacia International, Burlington, Mass., USA). This method utilizes a small molecular marker, pimonidazole, which after intravenous injection forms adducts with thiol containing proteins only in oxygen-starved cells. After general anesthesia as described above, pimonidazole-HCl (6 mg/100 g) was injected intravenously 30 min before SAO or SHAM; at 30 min the animal was euthanized and the jejuna section removed, embedded in O.C.T and frozen in liquid nitrogen. Then cryosections were immunostained using a rabbit antibody that binds to protein adducts of pimonidazole in hypoxic cells.

The subject of experiment [1] is mucin2. Kind of experiment: Mucin2 fluorescent staining of jejunal sections, rat SAO model. In kind it is in vivo. The following applies: SAO 30 min, lumenal injection 30 min prior. The protocol: as §1, §2, §3, §4, §5
(§8) Tissue cryosections: After euthanasia, jejunal sections (˜1 cm in length) were excised without removal of lumenal contents and suspended in Tissue-Tek O.C.T. Compound (Sakura Finetek, Torrance, Calif.), snap frozen in isopentane/liquid nitrogen, and stored at −80° C. for analysis. Cryosections (5 μm thickness) along the longitudinal axis of the villi were used throughout all experiments. Cryosections were fixed in 10% formalin solution and processed in a non-blinded fashion.
(§9) Mucin and lectin staining: The simultaneous visualization of lectins and mucin was carried out using Lectin GS-II from Griffonia simplicifolia, Alexa Fluor® 594 Conjugate (EnzChek®, Invitrogen, Carlsbad, Calif.) and specific antibody for mucin2 with FITC secondary antibody 1:10000 (Santa Cruz Biotechnology) and nuclei counterstaining with DAPI. Sections were observed on an inverted microscope (20× objective) using the appropriate fluorescent filters.

Experiment [2] deals with lectin staining (carbohydrate portion of mucin). Kind of experiment: Lectin fluorescent staining (carbohydrate portion of mucin) of jejunal sections, rat SAO model. Type of experiment: in vivo. The following applies: SAO 30 min; lumenal injection 30 min prior. Here is the method: as §1, §2, §3, §4, §5, §8, §9
The test system of experiment [3] is MDA equivalents (TBARS) in jejunal homogenates. Kind of experiment: Thiobarbituric Acid Reactive Substances (TBARS) assay, rat SAO model. Type of experiment: in vivo. The following applies: SAO 30 min; lumenal injection 30 min prior. The protocol: as §1, §2, §3
pH groups: Acidic saline (pH 5.5) injected in the lumen of the intestine 30 min prior SHAM surgery or HEPES buffer (20 mM) injected into the lumen of the intestine 30 min prior to SHAM or SAO surgery. […]
TBARS assay: Thiobarbituric Acid Reactive Substances (TBARS) was measured using the TBARS assay kit (Zeptometrix, Buffalo, N.Y.) according to manufacturer's protocol. […] Samples were centrifuged at 3000 rpm for 15 min and the supernatant were read at 530/550 (Ex/Em).

Another experiment relates to shock. The following applies: ATP infusion before and during shock, given prior to hemorrhage; cited from earlier work.
For experiment [4], the system named is trypsin activity in the intestinal wall. Kind of experiment: In-situ zymography for trypsin activity in jejunal cryosections, rat splanchnic arterial occlusion (SAO) model. Type of experiment: in vivo. The following applies: lumenal injection 30 min prior. Here is the method: as §1
Control groups: Animals with saline injection into the lumen of the intestine, 3 ml/100 g Body Weight (BW), 30 min prior to SHAM or SAO surgery.
as §2
ATP-MgCl2 groups: ATP-MgCl2 (Sigma-Aldrich), 25 mg/kg BW was injected in the lumen of the intestine 30 min prior to SHAM or SAO surgery (SHAM+ATP, SAO+ATP). […]
After 30 min SAO or sham surgery, the animals were euthanized (Beuthanasia®; 0.22 ml/kg BW, IV).
as §8
In-situ tissue zymography: In-situ zymography for trypsin activity in cryosections was assessed by measurement of fluorescence resulting from the proteolytic cleavage of the substrate (1 mM, Na-benzoyl-L-arginine-7-amido-methylcoumarin hydrochloride; Sigma-Aldrich) as described elsewhere with propidium iodine counterstaining (Sigma-Aldrich) (9). Slides were observed under an inverted microscope (20× and 60× objectives).

Experiment [5] deals with ATP concentration in intestine homogenates. Kind of experiment: ATP assay in intestine homogenates, rat SAO model. In kind it is in vivo. The following applies: lumenal injection 30 min prior. Here is the method: as §1, §2, §3, §4, §5
ATP assay: ATP concentrations in intestine homogenates were measured using ATP fluorometirc assay kit (BioVision, Mountain View, Calif.) according to manufacturer's protocol. Briefly jejuna sections were homogenized with perchloric acid (BioVision), centrifuged at 15,000×G for 5 min at 4° C. Samples were mixed with ATP reaction mix, incubated for 30 min protected from light and the fluorescence was measured with 535/587 (Ex/Em).

Experiment [6] deals with mucin2. Kind of experiment: Western blot for mucin2 of intestine homogenates, rat SAO model. In kind it is in vivo. The following applies: SAO 30 min, lumenal injection 30 min prior. The protocol:
as §1, §2, §3, §4, §5, §6, §7

As for ATP-MgCl2, the “mucin13 protein levels / 17 kDa fragment (Western blot)” value in the experiment with mucin13 is “the same mucin2 and mucin13 protein levels as the sham”; in the experiment on mucin13 (listed as ATP) it was “preservation of mucin2 staining as well as protein levels of mucin2 and mucin13”. For the same substance, in the experiment on intestinal villi hypoxia, the hypoxia staining levels entry is recorded as “significantly high levels of hypoxia staining as compared to SHAM groups”. The figures for the mucin2 staining levels entry in the experiment with mucin2 [1] and in the experiment with mucin2 [1] (listed as ATP) were “significantly lower as compared to the SHAM group with saline but was not statistically different from SHAM-ATP-MgCl2” and “preservation of mucin2 staining”, respectively. Further, the lectin staining levels entry in experiment [2] is “significantly lower as compared to the SHAM and SHAM-ATP-MgCl2”. In addition, the “levels of MDA equivalents (TBARS)” value in experiment [3] is “on average lower levels of MDA equivalents compared to SHAM or SAO, but they were not significant”. Moreover, in the experiment on shock, the survival of animals entry is recorded as “improves the survival of animals”. For the same substance, the “trypsin activity in the intestinal wall” value in experiment [4] (SAO 30 min) is “Low levels of trypsin activity”; in experiment [4] (SAO 30 min, listed as ATP) it was “less trypsin activity in the wall as compared to the ischemic group with only lumenal saline”; in experiment [4] (SHAM surgery), “minimal trypsin activity”. The “ATP concentration in intestinal tissue homogenates” value in experiment [5] (SAO 30 min) and in experiment [5] (SHAM surgery) was “significantly increased the ATP concentration” in each case. The “mucin2 protein levels (relative density, Western blot)” value with mucin2 [6] was “the same mucin2 and mucin13 protein levels as the sham”; with mucin2 [6] (listed as ATP), “preservation of mucin2 staining as well as protein levels of mucin2 and mucin13”.
